Measurements published in PMC6533572, “Elucidation of the Differences in Cinobufotalin’s Pharmacokinetics Between Normal and Diethylnitrosamine-Injured Rats: The Role of P-Glycoprotein” (Frontiers in Pharmacology, 2019).
Converted amounts (≈) assume the structure as drawn. Like-named read-outs stand apart in the source and are kept apart here.

Experiments:
Water solubility = assay type: physicochemical; conditions: pH 7.0
From the text: Traditional Chinese Medicine (TMC) is widely used due to high efficiency and low toxicity in the treatment of various diseases. Toad venom (also known as Chan’su) is derived from the dried skin secretions of giant toads (Bufo gargarizans Cantor or Bufo melanostictus Suhneider) and is currently used in clinical practice, such as Cinobufacini injection, to treat HCC ([Kamano et al., 2002]; [Tang et al., 2008]; [Hu et al., 2011]; [Zhang et al., 2018]). Cinobufotalin (Figure 1A), a bufadienolide in chemical structure, is one of the major anti-tumor components of Cinobufacini injection ([Tao et al., 2010]; [Zhang et al., 2018]). […] This implied that cinobufotalin has shown excellent druggability.

[1] = Stability in 50% acetonitrile solution; assay type: physicochemical
Description: In addition, the stabilities of cinobufotalin at 20, 200, and 2000 ng/mL in different storage conditions were evaluated, including short term stability (such as 25°C for 4, 8, 12, and 24 h and 4°C for 4, 8, 12, and 24 h), long term stability (-80°C for 10 days) and three freeze-thaw cycles in rat plasma. Stabilities were expressed as the concentrations after different operations to the concentration at time zero. All of the samples were processed as described in Preparation of rat plasma samples section. A 5 μL aliquot was injected to UPLC-QTOF/MS for analyses.
In addition, we also evaluated the stability of cinobufotalin in 50% accetonitrile solution at 4°C and room temperature (25°C) after storage for 4, 8, 12, and 24 h.

[2] = Liver distribution of cinobufotalin in normal and DEN-injured rats; assay type: in vivo; conditions: male, Sprague Dawley, rat, iv, 2.5 mg/kg, i.v. 2.5 mg/kg, after the last sampling time point (24 h), read-out: concentration of cinobufotalin in liver tissues
Description: For PK studies, the rats were randomly divided into two experimental groups (10 rats for normal rats group and 20 rats for DEN-injured rats group, considering the animal casualties during the modeling process). HCC rat model was established by intraperitoneal administration of 50 mg/kg DEN two times per week ([Fuchs et al., 2014]), and the control group rats were treated with normal saline in the same way. After 14 weeks of administration, three rats were randomly selected and anesthetized by anesthesia cocktail (Ketamine 50 mg/mL, Xylazine 3.3 mg/mL and Acetopromazine 3.3 mg/mL). Then the liver was taken out and photographed to determine whether the animal model was successfully constructed.
Before PK experiment, a cannula was introduced into the jugular vein of the anesthetized rat and administrated carprofen subcutaneously after the surgery. After observation for 24 h, when the activity and excretion of rats were normal, rats were dosed with cinobufotalin at 2.5 mg/kg through jugular vein cannula. Blood samples (200 μL) were withdrawn at each pointed time (5, 10, 15, 30, 45 min, and 1, 1.5, 2, 4, 6, 8, 12, and 24 h) after dosing, and whole blood was transferred into tubes pre-treated with heparin (1000 U/mL). Then an equal volume of saline was injected into rats through jugular vein cannula immediately. […]

Huh-7 cells [3] = test: Wound healing assay, Huh-7 cells; assay type: cell-based; conditions: 40, 60 and 80 nM, 24 h
Description: (§1) Hepatocellular cancer cells (HepG2 and Huh-7) were purchased from the cell bank of the Chinese Academy of Science (Shanghai, China). These cells were cultured in Dulbecco’s modified Eagle’s medium (DMEM) containing 10% fetal bovine serum (FBS), penicillin (100 units/mL) and streptomycin (100 units/mL) in a humidified atmosphere with 5% CO2 at 37 °C.
Wound healing assay was used to investigate the effect of cinobufotalin on the migration of HepG2 and Huh-7 cells. Cells were seeded into 6-well plates at the density of 4 × 10^5 cells/well and maintained until reaching monolayer confluence. The cells were scratched using 20-μL pipette tips and rinsed with PBS buffer for three times. And then the cells were cultured in serum-free medium containing different concentrations of cinobufotalin (40, 60, 80 nM). After treatment with cinobufotalin for different lengths of time (0 and 24 h), the width of wound was measured and the images of cells were acquired using inverted microscope (Leica, Wetzlar, German). The rate of wound healing = [(the wound width of 0 h - 24 h)/0 h wound width] × 100%. All experiments were performed in triplicate.

Huh-7 cells [4] = test: Cell viability CCK-8 assay, Huh-7 cells; assay type: cell-based; conditions: Homo sapiens, 40 nM, 60 nM and 80 nM, 24 h, read-out: inhibition of Huh-7 cells growth (CCK-8)
Description: as §1
Furthermore, the effect of cinobufotalin at 40, 60, 80 nM on hepatocellular cancer cells (HepG2 and Huh-7 cells) viability was conducted using Cell Counting Kit - 8 (CCK-8) assay (Sigma-Aldrich, St Louis, MO). In brief, cells were seeded into 96-well plates at 5 × 10^3 cells/well and cultured for 24 h in DMEM medium as described in 1.1 section. Then various concentrations of cinobufotalin (40, 60, 80 nM) were added into cells. After 24 h treatment, 10 μL of CCK-8 solution was added into every well of the plate. The plate was incubated in the incubator for other 4 h, and then the absorbance was measured at 450 nm using a microplate reader (Thermo Scientific, Rockford, IL). The cell viability was calculated by the formula: cell viability (100%) = (OD value of the treated wells - OD value of the blank control wells) / (OD value of the negative control wells - OD value of the blank control wells).

CC(=O)O[C@H]1[C@H]2O[C@]23[C@@H]2CC[C@]4(O)C[C@@H](O)CC[C@]4(C)[C@H]2CC[C@]3(C)[C@H]1c1ccc(=O)oc1 [Cinobufotalin]
solubility (Water solubility): 117 µg/mL (≈ 256 µM)
Stability in 50% Acetonitrile solution, 4°C, 4 h ([1]; 20 ng/mL): 97.5 ± 5.7%
Stability in 50% Acetonitrile solution, 4°C, 8 h ([1]; 20 ng/mL): 101.9 ± 3.6%
Stability in 50% Acetonitrile solution, 4°C, 12 h ([1]; 20 ng/mL): 99.1 ± 2.5%
Stability in 50% Acetonitrile solution, 4°C, 24 h ([1]; 20 ng/mL): 100.4 ± 2.7%
Stability in 50% Acetonitrile solution, 25°C, 4 h ([1]; 20 ng/mL): 99.5 ± 4.4%
Stability in 50% Acetonitrile solution, 25°C, 8 h ([1]; 20 ng/mL): 97.1 ± 2.3%
Stability in 50% Acetonitrile solution, 25°C, 12 h ([1]; 20 ng/mL): 97.7 ± 4.6%
Stability in 50% Acetonitrile solution, 25°C, 24 h ([1]; 20 ng/mL): 95.5 ± 4.3%
Stability in 50% Acetonitrile solution, 4°C, 4 h ([1]; 200 ng/mL): 102.6 ± 6.8%
Stability in 50% Acetonitrile solution, 4°C, 8 h ([1]; 200 ng/mL): 99.5 ± 4.0%
Stability in 50% Acetonitrile solution, 4°C, 12 h ([1]; 200 ng/mL): 97.4 ± 2.9%
Stability in 50% Acetonitrile solution, 4°C, 24 h ([1]; 200 ng/mL): 96.7 ± 2.6%
Stability in 50% Acetonitrile solution, 25°C, 4 h ([1]; 200 ng/mL): 100.1 ± 2.8%
Stability in 50% Acetonitrile solution, 25°C, 8 h ([1]; 200 ng/mL): 101.2 ± 2.0%
Stability in 50% Acetonitrile solution, 25°C, 12 h ([1]; 200 ng/mL): 99.5 ± 4.3%
Stability in 50% Acetonitrile solution, 25°C, 24 h ([1]; 200 ng/mL): 99.0 ± 2.8%
Stability in 50% Acetonitrile solution, 4°C, 4 h ([1]; 2000 ng/mL): 102.0 ± 5.0%
Stability in 50% Acetonitrile solution, 4°C, 8 h ([1]; 2000 ng/mL): 103.7 ± 3.5%
Stability in 50% Acetonitrile solution, 4°C, 12 h ([1]; 2000 ng/mL): 96.3 ± 4.0%
Stability in 50% Acetonitrile solution, 4°C, 24 h ([1]; 2000 ng/mL): 97.9 ± 2.5%
Stability in 50% Acetonitrile solution, 25°C, 4 h ([1]; 2000 ng/mL): 100.3 ± 3.0%
Stability in 50% Acetonitrile solution, 25°C, 8 h ([1]; 2000 ng/mL): 99.1 ± 1.1%
Stability in 50% Acetonitrile solution, 25°C, 12 h ([1]; 2000 ng/mL): 98.4 ± 3.5%
Stability in 50% Acetonitrile solution, 25°C, 24 h ([1]; 2000 ng/mL): 100.5 ± 3.3%
concentration at 24 h ([2]; DEN-injured rats): 21 ± 2.7 ng/mL
concentration at 24 h ([2]; normal rats): 39.3 ± 4.9 ng/mL
migration of Huh-7 cells (wound healing) (Huh-7 cells [3]): significantly attenuated
inhibition at 0.04 µM (Huh-7 cells [4]): < 15%
